Consider 5 compounds from patent US20030157502A1, “Chemotherapeutant screening method” (priority 1999, published 2003).

Where two headings read alike, the source gives them in different places. Starred links: 1 amine or outer side, 2 acyl side, 3 side chain; linkers in the order of their positions; H or OH if unused. Positions of bridges follow the written chain, without caps; N, C: chain ends. Non-standard residues stand in square brackets, D forms with d. Residues, ends and D or L forms follow the SMILES beside them. Chains are numbered I, II in the order given. Actinocin(9to1) = Cc1c2oc3c(C)ccc(C(=O)[*:1])c3nc-2c(C(=O)[*:2])c(N)c1=O; NMeV = CN[C@H](C(=O)O)C(C)C; Sar = CNCC(=O)O

Experiment [1] has as its system HepG2 cells. Description: Apoptosis by PI exclusion and forward/side scatter (FSC/SSC). It is filed as cell-based. The following applies: 100 μg/ml 5-FU, after 48 hours. As for the experimental part:
FIG. 1: Chemotherapeutic agents effect CD95-mediated death in HepG2 cells HepG2 cells were cultured almost up to confluence and then incubated with 100 μg/ml 5-FU over the indicated periods in the presence of either an isotype-adapted control antibody or the anti-CD95L antibody NOK-1 (50 μg/ml). The same experiment was carried out with the addition of CD95-Fc (50 μg/ml). Apoptosis was determined by PI exclusion and measurement of the forward/side scatter (FSC/SSC). The data shown are average values with standard deviations from three samples.
Following the corresponding treatment, the cells were trypsinated with 1% trypsin-EDTA for 5 min., washed twice with PBS and stained using 2.5 μg/ml propidium iodide (PI; Sigma). The stain uptake was measured by means of a “FACScan” cytometer (Becton Dickinson GmbH, Heidelberg, Germany) using the “CellQuest” Software. Changes in the forward/side scatter (FSC/SSC) of the cell population were evaluated as well. For quantifying the DNA fragmentation the supernatants were centrifuged at 200×g, the cells were trypsinated and washed as indicated above. […] The nuclei were then analyzed as regards their DNA content by means of flow cytometry (Nicoletti et al., Journal of Immunological Methods 139 (1991), 271). […]

The test system of experiment [2] is CD95L-mRNA. It is filed as cell-based, human. Particulars: for upward regulation of CD95L-mRNA: HepG2 (wt p53) cells; for effect on transcription or translation of the housekeeping gene β-actin: subtoxic concentrations.
Experiment [3] deals with CD95L-mRNA. Briefly: CD95L-mRNA expression by RT-PCR in Hep3B cells. The class given is cell-based, human. The following applies: Hep3B (p53 -/-) cells.
The test system of experiment [4] is SKW6.4 cells. Briefly: 51Cr release assay, Hep3B effector cells and SKW6.4 target cells. It is filed as cell-based, human. The following applies: Hep3B treated with 100 μg/ml 5-FU 48 hours before incubation. Here is the method: FIG. 3: The treatment with chemotherapeutic agents results in an upward regulation of functional CD95L A ^51Cr release assay with Hep3B cells as effectors and SKW6.4 cells as target was used. Hep3B cells were cultured in 96-well plates treated with 5-FU. After 48 hours, the chemotherapeutic agents were removed from the culture medium and ^51Cr-labeled SKW6.4 cells were added with either a control antibody or the anti-CD95L antibody NOK-1. Following incubation overnight, the supernatants were measured in a gamma counter. Relative lysis was calculated as indicated in Example 1. E/T is the ratio between effector cells and target cells. Every series of concentration was carried out threefold. The diagram represents an experiment from a series of independent experiments having the same result.
CD95L-mediated cytotoxicity induced by chemotherapy was studied. Hep3B cells (effector cells) were seeded into 96-well plates and treated with chemotherapeutic agents for 48 hours. […] After 12 to 16 hours, 100 μl supernatant of each well were collected and measured in a gamma counter. The specific lysis was calculated in accordance with formula L=(E−S)/(T−S), E representing the gamma counts of the unknown sample, S being the spontaneous lysis of the labeled target cells in the medium without effector cells, and T representing the maximum release of the target cells kept in 2 N HCl. […]

In experiment [5] the test system is CD95L promoter. Description: CD95L promoter luciferase reporter assay in transiently transfected Hep3B cells. It is filed as cell-based, human. Particulars: for effect of the combination on activation of the CD95L promoter: 5-FU plus etoposide, 48 hours. For orientation: A reporter such as luciferase makes a cellular process visible.
Protocol: Every bar represents the calculated value from treated/untreated cells. The transfection efficiency in A and B was monitored by cotransfection of a renilla Luciferase construct controlled by a basal promoter. […] B: Titration of 5-FU. Hep3B cells were transiently transfected with the −36/+100 promoter construct. […] The cells were lyzed and the luciferase activity was determined.
The cotransfected cells were then treated with 100 μg/ml 5-FU for 48 hours or not treated. The transfection efficiency was normalized by either cotransfection of an expression vector for chloramphenicol transferase (CAT) or renilla luciferase (both controlled by a basal promoter). The luciferase activity was measured using the “dual luciferase” assay (Promega company) in accordance with the manufacturer's instructions, and the CAT activity was determined by means of a commercially available CAT ELISA. Average values (with standard deviation) from different independent experiments are shown. B: “Dual luciferase” assay with Hep3B cells cotransfected with the described CD95L promoter construct and a renilla-luciferase expression vector (as a control for the transfection efficiency). The cells were collected at the indicated times. In addition, the protein content of the transfected cells was determined. The data are average values (with standard deviation) from three samples of a representative experiment. Four independent experiments were carried out.
Hep3B cells were transfected with the −36/+100 construct (CD95L prom wt) or the APX4 construct (mutated −36/+100 CD95L.luc; Cd95L prom mut). The transfection efficiency was monitored by cotransfection with renilla luciferase. Following transfection the cells were treated with 5-FU (100 μg/ml) for 48 hours. The luciferase activity was measured and the multiplication of induction was calculated.
One day before the transfection, the cells were plated out with a density of 0.6×10^6/9 cm Petri dishes. The medium was exchanged two hours before the transfection. The transfection was carried out by means of the method based on calcium phosphate precipitation. In summary, 5 to 40 μg DNA were diluted in 500 μl of a calcium chloride solution. The DNA/calcium chloride mixture was added drop-wise to 500 μl HBS. Precipitation was carried out at room temperature for 20 min., and then the precipitation mixture was added to the culture medium. The precipitate was allowed to stay on the cells for 12 to 24 hours. Thereafter, the cells were shock-treated using 16% glycerin in full medium for 3 min. Following three wash steps using PBS, the cells were cultured in medium supplemented with 20% FCS for at least six hours. Finally, the cells were distributed over 6-well plates, and the chemotherapeutic treatment was started for different periods.
After three wash steps in PBS, the cells were lyzed in 200 μl passive lysis buffer (Promega). Following 20 minutes of incubation at room temperature, the cells were scratched off the plates. The lyzates were subjected to two freeze/thaw cycles and then cell debris was removed by centrifugation.
The test system of experiment [6] is c-Jun. Description: c-Jun immunofluorescence in Hep3B cells. It is filed as cell-based, human. Particulars: 5-FU 100 μg/ml for 40 hours. As for the experimental part:
(§1) Thereafter, the cells were either not treated (A) or treated with 5-FU (100 μg/ml) for 40 hours (B), fixed and stained as described. C+D: Human primary hepatocytes were isolated as described in Example 1 and seeded onto culture dishes. Thereafter, the cells were either not treated (C) or treated with 5-FU (50 μg/ml) for 40 hours (D), fixed and stained with an antibody specific to c-Jun.
Cultured Hep3B cells or freshly isolated human primary hepatocytes were plated onto Lab-Tek™ chamber slides (Renner GmbH, Darmstadt, Germany). Following culturing over a period of at least two days, the cells were treated with chemotherapeutic agents. Thereafter, fixation in methanol/acetone (5 min. or 10 sec. at −20° C.) was carried out. Then, the cells were initially incubated at 37° C. for 1 hour with the specific primary antibody against human c-Jun (Santa Cruz GmbH, Heidelberg, Germany), and after three wash steps using PBS, the cells were covered with fluorescein-isothiocyanate-conjugated goat anti-rabbit IgG (Dianova, Hamburg, Germany) for 1 hour. Non-specific staining was monitored by incubation with mouse or rabbit immunoglobulins in place of the specific primary antibody or by blocking the primary antibody with the immunogenic peptide. The slides were covered with cover glasses and evaluated by means of a fluorescence microscope. […]

The test system of experiment [7] is c-Jun. Description: c-Jun immunofluorescence in primary human hepatocytes. The class given is cell-based. Particulars: 5-FU 50 μg/ml for 40 hours. Here is the method: as §1
Primary human hepatocytes were obtained by means of a 2-step perfusion technique from healthy liver tissue of patients undergoing partial liver resection. For this purpose, a cannula was introduced into a blood vessel of the removed liver tissue and it was perfused with Ca-free and Mg-free “Hank's balanced salt solution (HBSS; Gibco BRL) containing 0.5 mM EDTA and 50 mM HEPES for 15 to 20 min. […] The viability was determined by means of the trypan blue exclusion method. […]
Cultured Hep3B cells or freshly isolated human primary hepatocytes were plated onto Lab-Tek™ chamber slides (Renner GmbH, Darmstadt, Germany). […] Non-specific staining was monitored by incubation with mouse or rabbit immunoglobulins in place of the specific primary antibody or by blocking the primary antibody with the immunogenic peptide. The slides were covered with cover glasses and evaluated by means of a fluorescence microscope. […]

`O=c1[nH]cc(F)c(=O)[nH]1` [5-FU, 5-fluorouracil] returned an apoptosis rate in experiment [1] of 43%. In addition, the “upward regulation of CD95L-mRNA” value in experiment [2] and in experiment [3] was “regulate upward” throughout. The “killing of CD95-bearing SKW6.4 cells by treated Hep3B cells” value in experiment [4] was “significant killing”. The “inducibility of CD95L promoter luciferase constructs (-1204/+100 to -36/+100)” value in experiment [5] (Hep3B cells transiently transfected) was “inducible”. Further, in experiment [5] (Hep3B cells, 100 μg/ml 5-FU, 48-hour treatment), the “inducibility of the AP-1-mutated -36/+100 reporter construct” value was “almost fully eliminated”. Moreover, the “effect of the combination on activation of the CD95L promoter” value in experiment [5] (Hep3B cells) is given as “synergistic effect”. In experiment [5] (Hep3B cells, -36/+100 luciferase construct), the “time of maximum activation of the -36/+100 construct” value is 64 h. Moreover, in experiment [5] (Hep3B cells, incubation up to 64 hours), the “response of the -36/+19 construct (lacks AP-1 site)” value is reported as “did not respond”. The “AP-1 (c-Jun) nuclear staining” value in experiment [6] is reported as “widely accumulated AP-1 within the nucleus”; in experiment [7], “intensive nuclear reactivity”.

`Cc1c2oc3c(C)ccc(C(=O)N[C@@H]4C(=O)N[C@H](C(C)C)C(=O)N5CCC[C@H]5C(=O)N(C)CC(=O)N(C)[C@@H](C(C)C)C(=O)O[C@@H]4C)c3nc-2c(C(=O)N[C@@H]2C(=O)N[C@H](C(C)C)C(=O)N3CCC[C@H]3C(=O)N(C)CC(=O)N(C)[C@@H](C(C)C)C(=O)O[C@@H]2C)c(N)c1=O` [actinomycin C1] (I: T[dV]P[Sar][NMeV] / II: T[dV]P[Sar][NMeV]; ester I:1-I:C, II:1-II:C; linker I:N-II:N via Actinocin(9to1)): in experiment [2], the “effect on the upward regulation of CD95L following treatment with chemotherapeutic agents” value is reported as “reduced efficiently” and the “effect on transcription or translation of the housekeeping gene β-actin” value was “no effect”.

On to `C[C@@H]1C[C@@H]([C@H](O)CC2CC(=O)NC(=O)C2)C(=O)[C@@H](C)C1` [cycloheximide], for which, in experiment [2], the “effect on the upward regulation of CD95L following treatment with chemotherapeutic agents” value was “reduced efficiently” and the “effect on transcription or translation of the housekeeping gene β-actin” value is listed as “no effect”.

Regarding `COc1cc([C@@H]2c3cc4c(cc3[C@@H](O[C@@H]3O[C@@H]5CO[C@@H](C)O[C@H]5[C@H](O)[C@H]3O)[C@H]3COC(=O)[C@H]23)OCO4)cc(OC)c1O` [etoposide], the “upward regulation of CD95L-mRNA” value in experiment [2] and in experiment [3] was “regulate upward” each time. Further, the “effect of the combination on activation of the CD95L promoter” value in experiment [5] (Hep3B cells) is on record as “synergistic effect”.

bleomycin: the “upward regulation of CD95L-mRNA” value in experiment [2] and in experiment [3] was “regulated upward” throughout.
